In patent US20080038374A1, “New Use” (Lipopeptide AB, priority 2004, published 2008):

Assays:
hCAP18 = hCAP18 mRNA in acute surgical wounds of healthy volunteers, Real-Time RT-PCR; type: in vivo, human; conditions: topical, 24 h, nine probands, relative to vaseline control wound
Description: To assess whether treatment with a vitamin D compound can further enhance the up-regulation of hCAP18 during acute skin injury, fresh surgical wounds in healthy volunteers (n=9) were treated with vitamin D ointment.
(§1) The investigation was non-randomized, single blinded including four females and five males, age 22-30 years. Only fair skinned, young and healthy individuals were included and the tissue was obtained from the same body location in a non-sun exposed area. Each individual obtained 3 wounds in the left and the right inguinal region, respectively. The topical treatment with vitamin D was applied on one side and the control treatment on the contra lateral side. To each of the wounds on one side, 25 μg calcipotriol in 0.5 g ointment (Daivonex, LEO Pharma, Malmo, Sweden) was applied to a total test area of 2×2.25 cm, including one wound with surrounding intact skin. The control wounds in the opposite inguinal region were treated with vaseline (ACO, Stockholm, Sweden). All wounds were covered with inert dressing (Melolin, Smith and Nephew, Hull, U K; Mefix, Molnlycke A B, Gothenburg, Sweden; Tegaderm, 3M Health Care, St. Paul, USA). After 12 hours the dressing was changed and the treatment was repeated. […]
Expression of hCAP18 mRNA was quantified by Real-Time PCR, as described in Example 1. […]

hCAP18/LL-37 = assay: hCAP18 and LL-37 protein in acute wounds, Western blot; type: in vivo, human
Excerpt: as §1, with “repeated. In the first four individuals investigated the bandage was removed at 24 hours and the wounds were excised with a 6 mm biopsy punch and snap frozen.” for “repeated.”
Protein was calculated from frozen biopsies from patients (n=5) cut in 50 μm sections and homogenized. […] Protein concentrations were measured by Protein Assay Kit (Bio-Rad Laboratories, Hercules, USA) based on the Bradford method (Bradford 1976). […]

SMILES: C=C1/C(=C\C=C2/CCC[C@]3(C)[C@@H]([C@H](C)/C=C/[C@@H](O)C4CC4)CC[C@@H]23)C[C@@H](O)C[C@@H]1O [calcipotriol]
- up-regulation of hCAP18 mRNA in acute wounds (hCAP18): enhances the up-regulation of hCAP18 mRNA
- immunoreactive bands of the processed peptide LL-37 versus control wounds (hCAP18/LL-37): in all three individuals, stronger immunoreactive bands
- immunoreactive bands of the 18 kDa hCAP18 holoprotein versus control wounds (hCAP18/LL-37; 24 and 48 hours, five individuals): three of the five individuals investigated demonstrated stronger immunoreactive bands
